Like-named read-outs stand apart in the source and are kept apart here.
Experiments:
[1] = target: T1, Rat Striatal Nicotinic Receptors (Rattus norvegicus, UniProt P09483+P12390); assay: Inhibition of [3H]Nicotine (NIC) binding assay, rat striatal membranes; settings: % inhibition at 100 nM concentration of analog, 3 nM [3H]NIC
T1 construct: from tissue; host or cells: rat striatal membranes
Description: Striata from two rats were dissected, pooled, and homogenized with a Tekmar polytron in 10 vol of ice-cold modified Krebs-HEPES buffer (20 mM HEPES, 118 mM NaCl, 4.8 mM, KCl, 2.5 mM CaCl2, 1.2 mM MgSO4, adjusted to pH 7.5). The homogenates were incubated at 37° C. for 5 minutes and centrifuged at 15,000 g for 20 minutes. The pellet was resuspended in 10 volumes of ice-cold MilliQ water, incubated for 5 minutes at 37° C., and centrifuged at 15,000 g for 20 minutes. The second pellet was then resuspended in 10 volumes of fresh ice-cold 10% Krebs-HEPES buffer, incubated at 37° C., and centrifuged at 15,000 g for 20 minutes. The latter sequence of resuspension, incubation and centrifugation was repeated. The pellet was frozen under fresh 10% Krebs-HEPES buffer and stored at −40° C. until assay. Upon assay, the pellet was resuspended in Krebs-HEPES buffer, incubated at 37° C. for 5 minutes, and centrifuged at 15,000 g for 20 minutes. The final pellet was resuspended in 3.6 mL ice-cold MilliQ water which provided for approximately 200 μg protein per 100 μL aliquot. Competition assays were performed in duplicate in a final volume of 200 μL Krebs-HEPES buffer containing […] Tris buffer (pH 7.5 at 4° C.). Reactions were initiated by addition of 100 μL of membrane suspension to 3 nM [^3H]NIC (50 μL) and one of at least nine concentrations of analog (50 μL). After a 90 minute incubation at 4° C., reactions were terminated by dilution of the samples with 3 mL of ice-cold Krebs-HEPES buffer followed immediately by filtration through Whatman GF/B glass fiber filters (presoaked in 0.5% polyethyleneimine) using a Brandel Cell Harvester. Filters were rinsed three times with 3 mL of ice-cold Krebs-HEPES buffer, transferred to scintillation vials, and 5 mL scintillation cocktail (Research Products international Corp., Mt. Prospect, Ill.) added. Nonspecific binding determined in triplicate was defined as binding in the presence of 10 μM NIC. Binding parameters were determined using the weighted, least squares non-linear regression. The tris-quaternary ammonium salts were evaluated for their ability to displace [^3H]NIC binding from rat striatal membranes.
(§1) Data are % inhibition at 100 nM concentration of analog for at least 1-3 independent experiments. Specific binding in the [^3H]NIC binding assay is calculated at the difference between the total binding of [^3H]NIC and nonspecific binding in the presence of 10 μM cold nicotine. Specific binding for the [^3H]MLA binding assay is calculated as the difference between the total binding of 2.5 nM [^3H]MLA to the receptors alone and its nonspecific binding in the presence of 1 μM cold MLA. Analog-induced inhibition of nicotine-evoked [^3H]DA release is calculated as a percent of that in the absence of analog.

[2] = tested on: NIC-evoked [3H]DA release from rat striatal slices; assay: Nicotine-evoked [3H]dopamine release assay, superfused rat striatal slices; type: cell-based; settings: 100 nM analog superfused 60 minutes prior to NIC (10 μM), percent of that in the absence of analog
Description: Rat striatal slices (500 μm thickness, 6-8 mg wet weight) were incubated for 30 minutes in Krebs buffer (118 mM NaCl, 4.7 mM KCl, 1.2 mM MgCl2, 1.0 mM NaH2PO4, 1.3 mM CaCl2, 11.1 mM glucose, 25 mM NaHCO3, 0.11 mM L-ascorbic acid and 0.004 mM disodium EDTA; pH 7.4, and saturated with 95% O2/5% CO2) in a metabolic shaker at 34° C. Slices were rinsed with 15 mL of fresh buffer and incubated for an additional 30 minutes in fresh buffer containing 0.1 μM [^3H]dopamine (DA; 6 slices/3 mL). Subsequently, slices were rinsed with 15 mL of fresh buffer and transferred to a glass superfusion chamber. Slices were superfused (1.0 mL/min) for 60 minutes with Krebs buffer containing nomifensine (10 μM) and pargyline (10 μM) and maintained at 34° C., pH 7.4 with continual aeration (95% O2/5% CO2). Two five minute samples (5 mL each) were collected to determine basal outflow of [^3H]DA. Analogs were added to the superfusion buffer after the collection of the second sample and remained in the buffer until 12 consecutive five minute samples were collected. Subsequently, S-(−)-nicotine (10 μM) was added to the buffer and an additional 12 consecutive five minute samples were collected. At the end of the experiment, each slice was solubilized and the [^3H] content of the tissue determined.
Radioactivity in the superfusate and tissue samples were determined by liquid scintillation spectroscopy. Fractional release for tritium collected in each sample was divided by the total tritium present at the time of sample collection and was expressed as a percentage of total tritium. Basal [^3H] outflow was calculated from the average of the tritium collected in the two five-minute samples just before addition of the analog. The sum of the increase in collected tritium resulting from either exposure to the test compound or exposure to S-(−)-nicotine in the absence cod presence of the test compound equaled total [^3H] overflow. [^3H] Overflow was calculated by subtracting the [^3H] outflow during an equivalent period of prestimulation from the values in samples collected during and after drug exposure. Inasmuch as the radiolabelled compounds were not separated and identified, the tritium in the superfusate is referred to as either [^3H] outflow or [^3H] overflow, rather than [^3H]DA. [^3H] Overflow primarily represents [^3H]DA in the presence of nomifesine and pargyline in the superfusion buffer. […]
Analogs were also evaluated for their ability to inhibit NIC evoked [^3H]DA release. In these experiments, the striatal slices were superfused for 60 minutes with 100 nM concentration of the analogs prior to NIC (10 μM) exposure. Antagonist activity was evaluated by comparing the NIC-evoked [^3H] overflow in the absence and presence of the analogs. The relative order of potency of the analogs for inhibition of NIC-evoked [^3H]DA release from rat striatal slices is illustrated in Table 1.
as §1

[3] = target: T2, α7-type neuronal nicotinic acetylcholine receptors (Rattus norvegicus, UniProt Q05941); assay: Inhibition of [3H]Methyllycaconitine (MLA) binding assay, rat brain membranes; settings: read-out: Inhibition of [3H]MLA binding
T2 construct: from tissue; host or cells: rat brain membranes (whole brain without cortex, striatum and cerebellum)
T2 sequence (Q05941 23-502): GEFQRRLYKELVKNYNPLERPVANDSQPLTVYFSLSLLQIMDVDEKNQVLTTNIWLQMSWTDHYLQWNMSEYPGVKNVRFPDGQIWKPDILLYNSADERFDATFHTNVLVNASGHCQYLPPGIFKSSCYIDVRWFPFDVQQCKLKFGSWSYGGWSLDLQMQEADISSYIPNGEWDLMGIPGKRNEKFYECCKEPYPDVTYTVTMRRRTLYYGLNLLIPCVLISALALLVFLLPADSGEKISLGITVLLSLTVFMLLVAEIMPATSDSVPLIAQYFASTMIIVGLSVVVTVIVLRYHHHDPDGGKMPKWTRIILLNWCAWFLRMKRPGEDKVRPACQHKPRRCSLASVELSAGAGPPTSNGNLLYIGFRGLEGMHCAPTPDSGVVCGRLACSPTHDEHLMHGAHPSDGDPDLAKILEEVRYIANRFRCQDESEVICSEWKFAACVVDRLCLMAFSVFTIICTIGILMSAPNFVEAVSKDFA
Description: Rat brain was dissected into the whole brain tissue without cortex, striatum and cerebellum and was frozen in liquid nitrogen and stored at −70° C. until use. The brain tissue was homogenized with a Tekmar Polytron (setting 40) in 20 volumes of ice-cold hypotonic buffer (2 mM HEPES, 14.4 mM NaCl, 0.15 mM KCl, 0.2 mM CaCl2 and 0.1 mM MgSO4, pH=7.5). The homogenate was incubated at 37° C. for 10 minutes and centrifuged at 25,000 g for 15 minutes at […] The pellet was washed 3 times more by resuspension in 20 volumes of the same buffer and centrifugation at the above parameters. The final pellet was stored at −20° C. under 4.6 mL of the incubation buffer and was suspended just before the incubation with radioligand.
The binding of [^3H]MLA to probe α7-type neuronal nicotinic acetylcholine receptors was measured using a modification of the method of Davies at al., “Characterisation of the binding of [^3H]methyllycaconitine (MLA): a radioligand for labelling α7-type neuronal nicotinic acetylcholine receptors,” Neuropharmacology, 38, 679-690 (1999). [^3H]MLA (25.4 Ci/mmol) was purchased from Tocris Cookson Ltd., Bristol, U.K. Binding was performed in duplicate, in a final volume of 250 μL of the incubation medium, containing 20 mM HEPES, 144 mM NaCl, 1.5 mM KCl, 2 mM CaCl2, 1 mM MgSO4 and 0.05% BSA, pH=7.5. Reaction was initiated by the addition of 100 μL of membrane suspension to the samples containing a desired concentration of test compounds and […] [^3H]MLA (final concentration) and incubated for 2 hours it room temperature. Total binding was measured in the absence of unlabelled ligand, and nonspecific binding was determined by the presence of 1 μM unlabelled MLA. The binding reaction was terminated by dilution of samples with 3 mL of ice-cold incubation buffer followed by immediate filtration through glass fiber filters (S&S, grade #32, presoaked in 0.5% polyethylenimine) using a Brandel harvester system. Filters were rinsed three times with 3 mL of ice-cold buffer, transferred to scintillation vials and 4 mL of scintillation cocktail was added. Protein was measured using the Bradford dye-binding procedure with bovine serum albumin as the standard.
The tris-quaternary ammonium salts were evaluated for their ability to displace [^3H]MLA binding from rat brain membranes.
as §1

[4] = % inhibition at 100 nM concentration of analog, rat brain membranes, 2.5 nM [3H]MLA

T1 sequence (P09483 31-630): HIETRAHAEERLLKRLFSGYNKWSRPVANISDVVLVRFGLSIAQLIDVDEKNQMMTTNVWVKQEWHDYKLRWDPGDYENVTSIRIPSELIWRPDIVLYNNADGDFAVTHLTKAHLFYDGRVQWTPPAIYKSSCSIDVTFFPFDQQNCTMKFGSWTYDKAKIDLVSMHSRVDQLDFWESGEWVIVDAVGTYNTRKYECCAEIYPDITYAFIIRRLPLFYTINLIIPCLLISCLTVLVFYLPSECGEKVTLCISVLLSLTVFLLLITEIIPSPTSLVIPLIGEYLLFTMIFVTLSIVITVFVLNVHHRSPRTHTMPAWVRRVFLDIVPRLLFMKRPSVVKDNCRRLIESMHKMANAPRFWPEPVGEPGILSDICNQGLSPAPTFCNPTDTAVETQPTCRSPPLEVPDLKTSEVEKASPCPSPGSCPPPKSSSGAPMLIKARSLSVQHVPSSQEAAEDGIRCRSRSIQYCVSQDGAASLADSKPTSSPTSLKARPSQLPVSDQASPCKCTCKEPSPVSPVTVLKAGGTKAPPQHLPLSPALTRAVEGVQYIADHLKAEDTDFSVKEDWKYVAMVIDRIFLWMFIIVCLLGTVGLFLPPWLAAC
T1 sequence (P12390 25-500): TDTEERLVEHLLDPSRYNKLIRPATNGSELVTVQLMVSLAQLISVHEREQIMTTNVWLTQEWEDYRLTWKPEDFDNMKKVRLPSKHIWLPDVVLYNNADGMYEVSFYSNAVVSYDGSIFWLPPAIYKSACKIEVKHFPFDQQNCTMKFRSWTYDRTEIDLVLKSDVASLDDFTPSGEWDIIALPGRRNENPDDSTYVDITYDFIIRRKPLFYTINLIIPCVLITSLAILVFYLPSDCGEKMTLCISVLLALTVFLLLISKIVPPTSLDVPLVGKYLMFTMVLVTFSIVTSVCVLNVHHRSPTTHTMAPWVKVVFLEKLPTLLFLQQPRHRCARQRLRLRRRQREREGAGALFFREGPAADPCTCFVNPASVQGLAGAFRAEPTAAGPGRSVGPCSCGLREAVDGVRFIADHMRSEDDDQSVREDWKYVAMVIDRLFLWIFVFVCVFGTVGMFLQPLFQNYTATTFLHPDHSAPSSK

| SMILES | inhibition at 0.1 µM [1] [%] | inhibition at 0.1 µM [2] [%] | inhibition at 0.1 µM [3] [%] | inhibition at 0.1 µM [3, 4] [%] |
| --- | --- | --- | --- | --- |
| c1ccc2c(c1)ccc[n+]2CCCCCc1cc(CCCCC[n+]2cccc3ccccc32)cc(CCCCC[n+]2cccc3ccccc32)c1 [GZ556A, 1,3,5-tris-[5-(1-quinolinium)-pentyl]-benzene tribromide] | 5.7 ± 5.7 | 8 ± 6.4 | 6.8 ± 0.9 | – |
| C(#Cc1cc(C#CCCC[n+]2cccc(-c3ccccc3)c2)cc(C#CCCC[n+]2cccc(-c3ccccc3)c2)c1)CCC[n+]1cccc(-c2ccccc2)c1 [GZ550B, 1,3,5-tris-[5-(3-phenyl-pyridinium)-pent-1-ynyl]-benzene tribromide] | 15 ± 0.9 | 49 | – | 39 ± 2.2 |
| Cc1cccc[n+]1CCCC#Cc1cc(C#CCCC[n+]2ccccc2C)cc(C#CCCC[n+]2ccccc2C)c1 [GZ554A, 1,3,5-tris-[5-(2-picolinium)-pent-1-ynyl]-benzene tribromide] | 4.5 ± 2 | 68 | – | 0 |
